Test results reported in patent US7314858B2, “Retrocyclins: antiviral and antimicrobial peptides” (priority 2001, dated 2008).
In brackets after ≈: the same amount, converted by molar mass. Entries after “also recorded” stand apart in the source; their conditions may differ. Read-outs that look alike come from different tables or passages of the source. Where a SMILES comes first, the peptide text is derived from it. Bridges are numbered along the chain shown (N, C = ends).

Columns and labels:
primary HIV-1 isolates = conditions: for IC50: read-out: mean IC50; for IC50 / mean IC50: seven subtype B strains
Description: Viral isolates. Primary HIV-1 isolates were obtained from Institutional Review Board-approved Centers for Disease Control and Prevention (CDC) Studies or from the National Institutes of Health Research and Reference Reagent Program and World Health Organization collaborative network. Detailed characteristics of the CDC isolates, including subtype determination based on the envelope region, and co-receptor usage using GHOST cell lines have been described elsewhere. For viruses obtained from the NIH Research and Reference Reagent Program, the reported subtype and co-receptor data were used as supplied. Viral stocks were generated by infecting CD8-depleted normal human peripheral blood mononuclear cells. After filtration through 0.22-μm filters, aliquots of the stocks were stored at −70° C. until used.
Reporter gene-based viral replication assay. JC53-BL cells, an HIV-1 reporter cell line derived from HeLa cells that expresses high levels of CD4 and the HIV co-receptors CXCR4 and CCR5, were a gift of Tranzyme Inc. (Birmingham, Ala.). The JC53-BL cells contain cassettes for luciferase and β-galactosidase, each driven by the HIV-1 LTR. HIV infection (tat production) can be detected either by measuring luciferase activity or by counting blue foci after staining the cells with “X-Gal” (5-Bromo-4-chloro-3-indolyl β-D-galactopyranoside), as described elsewhere in detail. The JC53-BL cells were maintained in Dulbecco's modified Eagle medium supplemented with 10% fetal calf serum. (HyClone, Logan, Utah), 2 mM glutamine (Gibco), 100 units per ml penicillin G and 100 μg/ml streptomycin (GIBCO™, Invitrogen Corp., San Diego, Calif.). Viral titers were determined by adding serial dilutions of the virus stocks, in triplicate, to wells containing 20,000 JC53-BL cells, after supplementing the above medium with 40 μg/ml DEAE (diethylaminoethyl)-dextran. After a 48 hour incubation at 37° C. in 5% CO2, the cells were fixed and stained for β galactosidase, and the blue foci were counted with a light microscope. Multiplicity of infection (MOI) values were taken from the infectious unit data.
In vitro infections were carried out in the presence or absence of θ-defensin peptides. Briefly, JC53-BL cells were harvested from T-150 flasks approximately 18 hours prior to starting the assay with 0.1 mM EDTA in 0.017 M PBS, pH 7.4. The cells were washed and transferred to sterile white 96-well plates (Thermo Labsystems, Franklin, Mass.) at a density of 20,000 cells in 50 μl of medium. […] After this 3-hour preincubation with peptides, viruses were added in media containing 40 μg/ml DEAE-dextran. The final volume was 200 μl per well, and the multiplicity of infection (viruses/cell) ranged from 0.009 to 0.65. After the plates had incubated at 37° C. in 5% CO2 for 48 hours, luciferase activity was measured with the Steady-Glo Luciferase Assay System (Promega, Madison, Wis.), using the manufacturer's lysis protocol. Relative light intensity was measured with a Tecan luminometer running Magellan software (Tecan, Research Triangle Park, N.C.) and reported as relative light units (RLU). Each plate contained three sets of quadruplicate controls: media-only (background), virus-only (peptide-free), and recombinant luciferase. Samples were run in duplicate and the % inhibition was calculated from the mean values using the formula: % Inhibition=1−(average RLU peptide+virus wells/average RLU virus only wells)×100.
Fifty-percent inhibitory concentration values (IC50) were calculated using the predicted exponential growth function in Microsoft Excel, which uses known x-y values to estimate a given x value (in this case concentration of peptide) that would correspond to a given y value (in this case IC50). Statistical comparisons were by paired t-tests, unless otherwise noted.

HIV-1 strain IIIB = assay: HIV-1 IIIB infection of CD4+ PBMC, p24 antigen ELISA; assay type: cell-based; conditions: for inhibition of HIV-1 replication (p24): CD4+ PBMC, IIIB (X4), peptide 10-20 μg/ml
Description: FIG. 5A-C. Anti-HIV-1 activity of retrocyclin. Two strains of HIV-1 and two types of human target cells were used. The IIIB strain is T-cell tropic (X4) and utilizes the CXCR4 co-receptor for entry; the JR-CSF strain is M-tropic (R5) and uses CCR5 for entry. PBMC signifies CD4^+-selected peripheral blood mononuclear cells. […] (A) Two concentrations of retrocyclin (2 μg/ml, 20 μg/ml), 20 μg/ml of the Rhesus circular defensin “RTD-1”, and 20 μg/ml of a horseshoe crab-derived peptide “T140”, reported to only prevent X4 infections, were tested in antiviral assays of against strain IIIB in H9 cells (n=2-6 per peptide; error bars indicate SEM). (B) To confirm our results with primary human cells, similar assays were performed utilizing IIIB virus and CD4^+ PBMC or (C) JR-CSF virus and CD4^+ PBMC. […] Average of duplicate experiments are reported for studies with PBMCs. Assay sensitivity=10 pg/ml.
Either HIV-1-permissive H9 cells were used as targets, or primary CD4^+ lymphocytes from HIV-1-seronegative donors generated from freshly purified peripheral blood mononuclear cells (PBMC) stimulated with a CD3-CD8 bispecific monoclonal antibody. […] These cells were maintained in RPMI containing 10% FCS supplemented with 2 mM glutamine, 100 U of penicillin/ml, 10 μg of streptomycin/ml, and 50 U of interleukin 2/ml (R10-50 media).
Examining the effect of adding retrocyclin at various times pre- and post-HIV-1 infection. […] Primary CD4^+ PBMC were incubated with HIV-IIIB (FIG. 6) or HIV-JR-CSF for 3 hours in the presence or absence of 20 μg/ml retrocyclin. The cells were subsequently washed in media, and incubated an additional 9 days. Retrocyclin (20 μg/ml) was added back to some of the cultures at time points specified in FIG. 6 and infection was monitored by p24 ELISA as previously described. […]

H9 cells = assay: Cytotoxicity by trypan blue exclusion; conditions: for cytotoxicity (trypan blue exclusion): 20 μg/ml, HIV-1-infected H9 cells
[1] = isolate 92BR023, subtype C/B, R5
[2] = isolate 92HT593, Haiti, subtype B, X4
[3] = isolate 92RW009, subtype C/A, R5/X4
[4] = isolate 92UG005, Uganda, subtype D, R5
[5] = isolate 93TH060, Thailand, CRF01-AE, R5
[6] = isolate 93UG053, Uganda, subtype D, R5
[7] = isolate 93US151, USA, subtype B, X4
[8] = isolate 98CN009, China, subtype C, R5
[9] = isolate 98TZ017, Tanzania, subtype C, R5
[10] = isolate 5157-1326, USA, subtype B, R5
[11] = isolate 192431, Nigeria, subtype C, X4
[12] = isolate 193358, Nigeria, subtype C, R5
[13] = isolate 196531, Cameroon, subtype A, R5
[14] = isolate 196554, Senegal, subtype A, R5
[15] = isolate HM14, Thailand, CRF01-AE, X4

Compound	IC50 (mean±SEM, n=8) (primary HIV-1 isolates) [µg/mL]	IC50 Concentrations (primary HIV-1 isolates; [1]) [µg/mL]	IC50 Concentrations (primary HIV-1 isolates; [2]) [µg/mL]	IC50 Concentrations (primary HIV-1 isolates; [3]) [µg/mL]	IC50 Concentrations (primary HIV-1 isolates; [4]) [µg/mL]	IC50 Concentrations (primary HIV-1 isolates; [5]) [µg/mL]	IC50 Concentrations (primary HIV-1 isolates; [6]) [µg/mL]	IC50 Concentrations (primary HIV-1 isolates; [7]) [µg/mL]	IC50 Concentrations (primary HIV-1 isolates; [8]) [µg/mL]	IC50 Concentrations (primary HIV-1 isolates; [9]) [µg/mL]	IC50 Concentrations (primary HIV-1 isolates; [10]) [µg/mL]	IC50 Concentrations (primary HIV-1 isolates; [11]) [µg/mL]	IC50 Concentrations (primary HIV-1 isolates; [12]) [µg/mL]	IC50 Concentrations (primary HIV-1 isolates; [13]) [µg/mL]	IC50 Concentrations (primary HIV-1 isolates; [14]) [µg/mL]	IC50 Concentrations (primary HIV-1 isolates; [15]) [µg/mL]	IC50 (primary HIV-1 isolates) [nM]	mean IC50 (primary HIV-1 isolates)	inhibition of HIV-1 replication (p24) (HIV-1 strain IIIB)	cytotoxicity (trypan blue exclusion) (H9 cells)	other results
CC[C@H](C)[C@@H]1NC(=O)CNC(=O)[C@H](CCCNC(=N)N)NC(=O)CNC(=O)[C@@H]2CSSC[C@H](NC1=O)C(=O)N[C@@H](CCCNC(=N)N)C(=O)N[C@H]1CSSC[C@H](NC(=O)[C@H](CCCNC(=N)N)NC(=O)[C@@H]3CSSC[C@H](NC(=O)[C@H]([C@@H](C)CC)NC1=O)C(=O)NCC(=O)N[C@@H](CCCNC(=N)N)C(=O)NCC(=O)N[C@@H]([C@@H](C)CC)C(=O)N3)C(=O)N[C@@H]([C@@H](C)CC)C(=O)N2 [RC-100, Retrocyclin] (cyclo(GICRCICGRGICRCICGR); disulfide 3-16, 5-14, 7-12)	7.79 ± 1.16 (≈ 4.06 µM)	4.71 (≈ 2.46 µM)	5.73 (≈ 2.99 µM)	8.72 (≈ 4.55 µM)	5.18 (≈ 2.7 µM)	7.39 (≈ 3.85 µM)	6.38 (≈ 3.33 µM)	1.69 (≈ 0.881 µM)	>10	>10	4.64 (≈ 2.42 µM)	5.18 (≈ 2.7 µM)	>10	>10	5.73 (≈ 2.99 µM)	3.09 (≈ 1.61 µM)	~2600	approximately 5.0 μg/ml	complete suppression; also recorded: uniformly protective	neither 20 μg/ml retrocyclin nor RC-101 were cytotoxic	IC50 Concentrations (primary HIV-1 isolates; isolate 92RW024, subtype D/A, R5): 7.78 µg/mL (≈ 4.06 µM); IC50 Concentrations (primary HIV-1 isolates; isolate 92UG037, Uganda, subtype A, R5): 1.44 µg/mL (≈ 0.751 µM); IC50 Concentrations (primary HIV-1 isolates; isolate 92US714, USA, subtype B, R5): >10 µg/mL; IC50 Concentrations (primary HIV-1 isolates; isolate 92US727, USA, subtype B, R5): 6.46 µg/mL (≈ 3.37 µM); IC50 Concentrations (primary HIV-1 isolates; isolate 93UG059, subtype A/D, X4): 6.65 µg/mL (≈ 3.47 µM); IC50 Concentrations (primary HIV-1 isolates; isolate 94UG114, Uganda, subtype D, R5): 3.69 µg/mL (≈ 1.92 µM); IC50 Concentrations (primary HIV-1 isolates; isolate 5148-1382, USA, subtype B, R5): 5.71 µg/mL (≈ 2.98 µM); IC50 Concentrations (primary HIV-1 isolates; isolate 5157-35097, USA, subtype B, R5X4): 6.29 µg/mL (≈ 3.28 µM); IC50 Concentrations (primary HIV-1 isolates; isolate 193317, Nigeria, subtype A, X4): >10 µg/mL; IC50 Concentrations (primary HIV-1 isolates; isolate RU132, Russia, subtype G, R5): 5.27 µg/mL (≈ 2.75 µM); IC50 Concentrations (primary HIV-1 isolates; isolate RU570, subtype G, R5): 8.63 µg/mL (≈ 4.5 µM); reduction of p24 concentration (HIV-1 strain IIIB; 20 μg/ml added 24 hours after initial infection): ~1000 fold; average number of cells (H9 cells; 20 μg/ml peptide, H9, IIIB): 1.2e+06 mL⁻¹
CC[C@H](C)[C@@H]1NC(=O)CNC(=O)[C@H](CCCCN)NC(=O)CNC(=O)[C@@H]2CSSC[C@H](NC1=O)C(=O)N[C@@H](CCCNC(=N)N)C(=O)N[C@H]1CSSC[C@H](NC(=O)[C@H](CCCNC(=N)N)NC(=O)[C@@H]3CSSC[C@H](NC(=O)[C@H]([C@@H](C)CC)NC1=O)C(=O)NCC(=O)N[C@@H](CCCNC(=N)N)C(=O)NCC(=O)N[C@@H]([C@@H](C)CC)C(=O)N3)C(=O)N[C@@H]([C@@H](C)CC)C(=O)N2 [RC-101, R9K-Retrocyclin]	2.93 ± 0.95 (≈ 1.55 µM)	3.04 (≈ 1.61 µM)	0.76 (≈ 0.402 µM)	2.72 (≈ 1.44 µM)	1 (≈ 0.529 µM)	2.15 (≈ 1.14 µM)	1.54 (≈ 0.815 µM)	0.49 (≈ 0.259 µM)	8.53 (≈ 4.51 µM)	4.87 (≈ 2.58 µM)	3.59 (≈ 1.9 µM)	0.54 (≈ 0.286 µM)	2.75 (≈ 1.45 µM)	2.65 (≈ 1.4 µM)	0.51 (≈ 0.27 µM)	0.84 (≈ 0.444 µM)	< 660	< 1.25 µg/mL	as active as retrocyclin	neither 20 μg/ml retrocyclin nor RC-101 were cytotoxic	protective activity compared with retrocyclin-1 (primary HIV-1 isolates): more active than retrocyclin-1; protective activity compared with retrocyclin-1 (primary HIV-1 isolates; subtype D strains, 1.25, 2.5, 5 and 10 μg/ml): more active than retrocyclin-1; protective activity compared with retrocyclin-1 (primary HIV-1 isolates; subtype G and various recombinant viruses): greater protection than retrocyclin-1
